{
  "source": "patent US10533010B2",
  "about": "“Substituted indole Mcl-1 inhibitors” (Vanderbilt University, priority 2014, dated 2020)",
  "type_in_all_cases": "binding",
  "key": {"[1]": {"molecular_target": "Bcl-2 (residues 1-207 A96T,G110R, Δ35-91, replaced with Bcl-xL35-50) (Homo sapiens, UniProt P10415, A37E/DEL42-87/G36T/INS34DVEEN/P40E/P88T/P90S/P91E/V35R/V89E)", "assay": "Fluorescence polarization anisotropy competition selectivity assay (FITC-Bak peptide) with Bcl-2", "details": "Table 3; 40 nM Bcl-2, 10 nM FITC-Bak", "description": "(§1) Compound affinity was measured using a fluorescence polarization anisotropy competition assay. Anisotropy measurements were carried out in 384-well, black, flat-bottom plates (Greiner Bio-one, Monroe, N.C., USA). The assay was run using either a fluorescein isothiocyanate-labeled BH3 peptide derived from Bak (FITC-AHx-[…]-NH2) or a fluorescein isothiocyanate-labeled BH3 peptide derived from Bim (FITC-AHx-[…]-NH2) that were purchased from GenScript (Piscataway, N.J.) at >95% purity and used without further purification. 10 nM FITC-Bak peptide and 15 nM recombinant Mcl-1 (residues 172-327) were added to assay buffer (3 mM dithiothreitol, 50 mM NaCl, 20 mM Tris, pH 7.5). The Bim based assay was run with 1 nM FITC-Bim peptide and 1.5 nM recombinant Mcl-1 (residues 172-327) added to assay buffer (20 mM TRIS pH 7.5, 50 mM NaCl, 3 mM DTT, 0.01% CHAPS). For selectivity assays, 40 nM Bcl-2 (residues 1-207^A96T,G110R, Δ35-91, replaced with Bcl-xL35-50) or 4 nM Bcl-xL (residues 1-209, loop 45-86 deleted) were incubated with 10 nM FITC-Bak in assay buffer.\n(§2) Compounds are diluted in DMSO in a 10-point, 3-fold serial dilution scheme. For the FITC-BAK assay 2.5 uL compound is added to 47.5 μL of assay buffer containing FITC-Bak and protein, for a final DMSO concentration of 5% and a top concentration of 20 μM. […] […]. The plate was mixed and incubated for 90 minutes at room temperature. Anisotropy is measured at excitation wavelength 480 nm and emission wavelength 535 nm using an EnVision Multi-label plate reader (PerkinElmer, Wellesley, Mass., USA) or a BioTek Cytation 3 (BioTek, Winooski, Vt., USA). […] IC50 is converted to a binding dissociation constant (Ki value) according to the formula of Wang Z. FEBS Lett (1996) 3, 245."}, "[2]": {"molecular_target": "Bcl-xL (residues 1-209, loop 45-86 deleted) (Homo sapiens (Human), UniProt Q07817, DEL45-86)", "sequence (Q07817 other isoform, or with tags, fused parts or gaps del 45-86)": "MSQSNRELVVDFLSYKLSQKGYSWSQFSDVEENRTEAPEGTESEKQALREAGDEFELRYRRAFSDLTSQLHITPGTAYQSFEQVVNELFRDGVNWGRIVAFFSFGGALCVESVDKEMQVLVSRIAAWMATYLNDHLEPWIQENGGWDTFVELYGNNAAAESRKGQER", "assay": "Fluorescence polarization anisotropy competition selectivity assay (FITC-Bak peptide) with Bcl-xL", "details": "Table 3; 4 nM Bcl-xL, 10 nM FITC-Bak", "description": "as §1, §2"}, "[3]": {"molecular_target": "recombinant Mcl-1 (residues 172-327) (Homo sapiens (Human), UniProt Q07820)", "sequence (Q07820 172-327)": "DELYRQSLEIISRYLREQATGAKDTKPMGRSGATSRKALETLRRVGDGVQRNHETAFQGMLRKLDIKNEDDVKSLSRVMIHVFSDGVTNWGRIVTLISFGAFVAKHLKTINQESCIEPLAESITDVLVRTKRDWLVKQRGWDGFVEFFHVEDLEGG", "assay": "Fluorescence polarization anisotropy competition assay (FITC-Bak or FITC-Bim BH3 peptide) with Mcl-1"}, "[4]": {"details": "Table 2, Ki bins given in nM, FITC-Bak or FITC-Bim peptide competition, Ki converted from IC50, read-out: Ki for Inhibition of Mcl-1"}},
  "note": "Where two headings read alike, the source gives them in different places.",
  "data": [
    {"smiles": "Cc1cc(OCCCc2c(C(=O)Nc3cccc(C(=O)O)c3)[nH]c3c(-c4c(C)nn(C)c4C)c(Cl)ccc23)cc(C)c1Cl", "note": "[I-39, 3-(6-chloro-3-(3-(4-chloro-3,5-dimethylphenoxy)propyl)-7-(1,3,5-trimethyl-1H-pyrazol-4-yl)-1H-indole-2-carboxamido)benzoic acid]", "values": [
      {"measurement": "Ki", "setting": "[1]", "result": 1.54, "unit": "µM"},
      {"measurement": "Ki", "setting": "[2]", "result": 4.59, "unit": "µM"}
    ]},
    {"smiles": "Cc1cc(OCCCc2c(C(=O)NCc3cc(C(=O)O)n(C)c3)[nH]c3c(-c4c(C)nn(C)c4C)cccc23)cc(C)c1Cl", "note": "[I-74, 4-((3-(3-(4-chloro-3,5-dimethylphenoxy)propyl)-7-(1,3,5-trimethyl-1H-pyrazol-4-yl)-1H-indole-2-carboxamido)methyl)-1-methyl-1H-pyrrole-2-carboxylic acid]", "values": [
      {"measurement": "Ki", "setting": "[1]", "result": 3.54, "unit": "µM"},
      {"measurement": "Ki", "setting": "[2]", "result": "> 100", "unit": "µM"},
      {"measurement": "Ki", "setting": "[3]; [4]", "result": "[…]"},
      {"measurement": "Ki", "setting": "[3]; Table 3, selectivity panel, read-out: Mcl-1 Ki", "result": "[…]"}
    ]},
    {"smiles": "Cc1cc(OCCCc2c(C(=O)Nc3cncc(C(=O)O)c3)[nH]c3c(-c4c(C)nn(C)c4C)c(Cl)ccc23)cc(C)c1Cl", "note": "[I-181, 5-(6-chloro-3-(3-(4-chloro-3,5-dimethylphenoxy)propyl)-7-(1,3,5-trimethyl-1H-pyrazol-4-yl)-1H-indole-2-carboxamido)nicotinic acid]", "values": [
      {"measurement": "Ki", "setting": "[1]", "result": 3.2, "unit": "µM"},
      {"measurement": "Ki", "setting": "[2]", "result": 61.5, "unit": "µM"}
    ]},
    {"smiles": "Cc1cc(OCCCc2c(C(=O)Nc3cc(C(=O)O)ccn3)[nH]c3c(-c4c(C)nn(C)c4C)c(Cl)ccc23)cc(C)c1Cl", "note": "[I-183, 2-(6-chloro-3-(3-(4-chloro-3,5-dimethylphenoxy)propyl)-7-(1,3,5-trimethyl-1H-pyrazol-4-yl)-1H-indole-2-carboxamido)isonicotinic acid]", "values": [
      {"measurement": "Ki", "setting": "[1]", "result": 2.9, "unit": "µM"},
      {"measurement": "Ki", "setting": "[2]", "result": 14.4, "unit": "µM"}
    ]},
    {"smiles": "Cc1cc(OCCCc2c3n(c4c(-c5c(C)nn(C)c5C)cccc24)CCCN(Cc2cccc(C(=O)O)c2)C3=O)cc(C)c1Cl", "note": "[I-32, 3-((11-(3-(4-chloro-3,5-dimethylphenoxy)propyl)-1-oxo-7-(1,3,5-trimethyl-1H-pyrazol-4-yl)-4,5-dihydro-1H-[1,4]diazepino[1,2-a]indol-2(3H)-yl)methyl)benzoic acid]", "values": [
      {"measurement": "Ki", "setting": "[1]", "result": 3.82, "unit": "µM"},
      {"measurement": "Ki", "setting": "[2]", "result": 13.4, "unit": "µM"}
    ]},
    {"smiles": "Cc1cc(OCCCc2c(C(=O)NCc3c[nH]c(C(=O)O)c3)[nH]c3c(-c4c(C)nn(C)c4C)cccc23)cc(C)c1Cl", "note": "[I-71, 4-((3-(3-(4-chloro-3,5-dimethylphenoxy)propyl)-7-(1,3,5-trimethyl-1H-pyrazol-4-yl)-1H-indole-2-carboxamido)methyl)-1H-pyrrole-2-carboxylic acid]", "values": [
      {"measurement": "Ki", "setting": "[1]", "result": 5.95, "unit": "µM"},
      {"measurement": "Ki", "setting": "[2]", "result": 13.8, "unit": "µM"}
    ]},
    {"smiles": "Cc1cc(OCCCc2c(C(=O)Nc3cccc(C(=O)O)c3)n(C)c3c(-c4c(C)nn(C)c4C)c(Cl)ccc23)cc(C)c1Cl", "note": "[I-188, 3-(6-chloro-3-(3-(4-chloro-3,5-dimethylphenoxy)propyl)-1-methyl-7-(1,3,5-trimethyl-1H-pyrazol-4-yl)-1H-indole-2-carboxamido)benzoic acid]", "values": [
      {"measurement": "Ki", "setting": "[1]", "result": 5.3, "unit": "µM"},
      {"measurement": "Ki", "setting": "[2]", "result": 15.6, "unit": "µM"}
    ]},
    {"smiles": "Cc1cc(OCCCc2c3n(c4c(-c5c(C)nn(C)c5C)c(Cl)ccc24)CCCN(c2cccc(C(=O)O)c2)C3=O)cc(C)c1Cl", "note": "[I-177, 3-(8-chloro-11-(3-(4-chloro-3,5-dimethylphenoxy)propyl)-1-oxo-7-(1,3,5-trimethyl-1H-pyrazol-4-yl)-4,5-dihydro-1H-[1,4]diazepino[1,2-a]indol-2(3H)-yl)benzoic acid]", "values": [
      {"measurement": "Ki", "setting": "[1]", "result": 1.9, "unit": "µM"}
    ]},
    {"smiles": "Cc1cc(OCCCc2c(C(=O)NCc3cc(C(=O)O)ccn3)[nH]c3c(-c4c(C)nn(C)c4C)cccc23)cc(C)c1Cl", "note": "[I-280, 2-((3-(3-(4-chloro-3,5-dimethylphenoxy)propyl)-7-(1,3,5-trimethyl-1H-pyrazol-4-yl)-1H-indole-2-carboxamido)methyl)isonicotinic acid]", "values": [
      {"measurement": "Ki", "setting": "[1]", "result": 7.9, "unit": "µM"},
      {"measurement": "Ki", "setting": "[2]", "result": 27, "unit": "µM"}
    ]},
    {"smiles": "Cc1cc(OCCCc2c3n(c4c(-c5c(C)nn(C)c5C)c(Cl)ccc24)CCCN(Cc2cccc(C(=O)O)c2)C3=O)cc(C)c1Cl", "note": "[I-80, 3-((8-chloro-11-(3-(4-chloro-3,5-dimethylphenoxy)propyl)-1-oxo-7-(1,3,5-trimethyl-1H-pyrazol-4-yl)-4,5-dihydro-1H-[1,4]diazepino[1,2-a]indol-2(3H)-yl)methyl)benzoic acid]", "values": [
      {"measurement": "Ki", "setting": "[1]", "result": 2.34, "unit": "µM"},
      {"measurement": "Ki", "setting": "[2]", "result": 6.75, "unit": "µM"}
    ]},
    {"smiles": "Cc1cc(OCCCc2c3n(c4c(-c5c(C)nn(C)c5C)c(Cl)ccc24)C(C)CCNC3=O)cc(C)c1Cl", "note": "(stereo not drawn) [I-116, 8-chloro-1-(3-(4-chloro-3,5-dimethylphenoxy)propyl)-5-methyl-7-(1,3,5-trimethyl-1H-pyrazol-4-yl)-2,3,4,5-tetrahydro-1H-[1,4]diazepino[1,2-a]indol-1-one]", "values": [
      {"measurement": "Ki", "setting": "[3]; [4]", "result": "< 50", "unit": "nM"}
    ]},
    {"smiles": "Cc1cc(OCCCc2c(C(=O)N3CCN(c4ccc(C(=O)O)cc4)CC3)n(Cc3ccncc3)c3c(-c4c(C)nn(C)c4C)c(Cl)ccc23)cc(C)c1Cl", "note": "[I-340, 4-(4-(6-chloro-3-(3-(4-chloro-3,5-dimethylphenoxy)propyl)-1-(pyridin-4-ylmethyl)-7-(1,3,5-trimethyl-1H-pyrazol-4-yl)-1H-indole-2-carbonyl)piperazin-1-yl)benzoic acid]", "values": [
      {"measurement": "Ki", "setting": "[3]; [4]", "result": "51 to 100", "unit": "nM"}
    ]},
    {"smiles": "Cc1cc(OCCCc2c3n(c4c(-c5c(C)nn(C)c5C)c(Cl)ccc24)C[C@@H](C)N(Cc2ccc(C(=O)O)o2)C3=O)cc(C)c1Cl", "note": "[I-123, (R)-5-((7-chloro-10-(3-(4-chloro-3,5-dimethylphenoxy)propyl)-3-methyl-1-oxo-6-(1,3,5-trimethyl-1H-pyrazol-4-yl)-3,4-dihydropyrazino[1,2-a]indol-2(1H)-yl)methyl)furan-2-carboxylic acid]", "values": [
      {"measurement": "Ki", "setting": "[3]; [4]", "result": "< 50", "unit": "nM"}
    ]},
    {"smiles": "Cc1cc(OCCCc2c3n(c4c(-c5c(C)nn(C)c5C)c(Cl)ccc24)CCCN(c2ccc(C#N)cc2)C3=O)cc(C)c1Cl", "note": "[I-356, 4-(8-chloro-11-(3-(4-chloro-3,5-dimethylphenoxy)propyl)-1-oxo-7-(1,3,5-trimethyl-1H-pyrazol-4-yl)-4,5-dihydro-1H-[1,4]diazepino[1,2-a]indol-2(3H)-yl)benzonitrile]", "values": [
      {"measurement": "Ki", "setting": "[3]; [4]", "result": "51 to 100", "unit": "nM"}
    ]},
    {"smiles": "Cc1cc(OCCCc2c(C(=O)Nc3ccc(CC(=O)O)cc3)[nH]c3c(-c4c(C)nn(C)c4C)cccc23)cc(C)c1Cl", "note": "[I-205, 2-(4-(3-(3-(4-chloro-3,5-dimethylphenoxy)propyl)-7-(1,3,5-trimethyl-1H-pyrazol-4-yl)-1H-indole-2-carboxamido)phenyl)acetic acid]", "values": [
      {"measurement": "Ki", "setting": "[3]; [4]", "result": "< 50", "unit": "nM"}
    ]},
    {"smiles": "Cc1cc(OCCCc2c3n(c4c(-c5c(C)nn(C)c5C)c(Cl)ccc24)CCCN(c2ccnc4c(C(=O)O)cccc24)C3=O)cc(C)c1Cl", "note": "[I-104, 4-(8-chloro-11-(3-(4-chloro-3,5-dimethylphenoxy)propyl)-1-oxo-7-(1,3,5-trimethyl-1H-pyrazol-4-yl)-4,5-dihydro-1H-[1,4]diazepino[1,2-a]indol-2(3H)-yl)quinoline-8-carboxylic acid]", "values": [
      {"measurement": "Ki", "setting": "[3]; [4]", "result": "< 50", "unit": "nM"}
    ]},
    {"smiles": "Cc1cc(OCCCc2c3n(c4c(-c5c(C)nn(C)c5C)c(Cl)ccc24)CCN(c2cc(NC4CCOCC4)cc(C(=O)O)c2)C3=O)cc(C)c1Cl", "note": "[I-214, 3-(7-chloro-10-(3-(4-chloro-3,5-dimethylphenoxy)propyl)-1-oxo-6-(1,3,5-trimethyl-1H-pyrazol-4-yl)-3,4-dihydropyrazino[1,2-a]indol-2(1H)-yl)-5-((tetrahydro-2H-pyran-4-yl)amino)benzoic acid]", "values": [
      {"measurement": "Ki", "setting": "[3]; [4]", "result": "< 50", "unit": "nM"}
    ]},
    {"smiles": "Cc1cc(OCCCc2c3n(c4c(-c5c(C)nn(C)c5C)c(Cl)ccc24)CCCN(c2cc(Cn4ccnc4)cc(C(=O)O)c2)C3=O)cc(C)c1Cl", "note": "[I-229, 3-((1H-imidazol-1-yl)methyl)-5-(8-chloro-11-(3-(4-chloro-3,5-dimethylphenoxy)propyl)-1-oxo-7-(1,3,5-trimethyl-1H-pyrazol-4-yl)-4,5-dihydro-1H-[1,4]diazepino[1,2-a]indol-2(3H)-yl)benzoic acid]", "values": [
      {"measurement": "Ki", "setting": "[3]; [4]", "result": "< 50", "unit": "nM"}
    ]},
    {"smiles": "Cc1cc(OCCCc2c3n(c4c(-c5c(C)nn(C)c5C)c(Cl)ccc24)CCCN(c2cc(C(=O)O)cc(-c4cccnc4C)c2)C3=O)cc(C)c1Cl", "note": "[I-232, 3-(8-chloro-11-(3-(4-chloro-3,5-dimethylphenoxy)propyl)-1-oxo-7-(1,3,5-trimethyl-1H-pyrazol-4-yl)-4,5-dihydro-1H-[1,4]diazepino[1,2-a]indol-2(3H)-yl)-5-(2-methylpyridin-3-yl)benzoic acid]", "values": [
      {"measurement": "Ki", "setting": "[3]; [4]", "result": "< 50", "unit": "nM"}
    ]}
  ]
}
